Numbers after ± are expanded uncertainties.
Key:
[1] = wn = mass fraction of the nth substance listed; settings: for surface tension liquid-gas: Ring tensiometer; for mass density: 101 kPa, Liquid, Vibrating tube method
[2] = Ring tensiometer

O [water] + N[C@@H](CO)C(=O)O
[1], w2 = 0
Settings	surface tension liquid-gas [mN/m]
298 K	71.46 ± 0.91
308 K	69.71 ± 0.89
318 K	68.51 ± 0.87
328 K	66.66 ± 0.85

O [water]
[2]
Settings	surface tension liquid-gas
298 K	71.52 ± 0.91 mN/m [middle of 7 runs]
308 K	69.73 ± 0.89 mN/m [middle of 7 runs]
313 K	69.89 ± 0.89 mN/m
318 K	68.48 ± 0.87 mN/m [middle of 7 runs]
328 K	66.76 ± 0.85 mN/m [middle of 7 runs]

N[C@@H](CO)C(=O)O [L-serine] + O
[1]
Settings	mass density, w1 = 0.005 [kg/m3]	surface tension liquid-gas, w1 = 0.00504 [mN/m]	surface tension liquid-gas, w1 = 0.01 [mN/m]	surface tension liquid-gas, w1 = 0.02001 [mN/m]	surface tension liquid-gas, w1 = 0.03 [mN/m]	surface tension liquid-gas, w1 = 0.03999 [mN/m]	surface tension liquid-gas, w1 = 0.05 [mN/m]
298 K	999.1 ± 0.6	71.53 ± 0.91	71.64 ± 0.91	71.7 ± 0.91	71.85 ± 0.91	71.98 ± 0.92	72.12 ± 0.92
308 K	–	69.85 ± 0.89	69.98 ± 0.89	70.15 ± 0.89	70.31 ± 0.9	70.44 ± 0.9	70.56 ± 0.9
318 K	–	68.58 ± 0.88	68.6 ± 0.88	68.84 ± 0.88	68.87 ± 0.88	69.09 ± 0.88	69.23 ± 0.88
328 K	–	66.76 ± 0.85	66.84 ± 0.86	67.01 ± 0.86	67.19 ± 0.86	67.28 ± 0.86	67.5 ± 0.86

CCO [ethanol] + O
surface tension liquid-gas [mN/m], [1]
Settings	w1 = 0.05	w1 = 0.1	w1 = 0.15	w1 = 0.2
298 K	55.14 ± 0.72	47.34 ± 0.63	41.96 ± 0.57	38.2 ± 0.52
313 K	53.13 ± 0.7	45.92 ± 0.61	40.41 ± 0.55	36.71 ± 0.51

O [water] + CSCC[C@H](N)C(=O)O
[1], w2 = 0
Settings	surface tension liquid-gas [mN/m]
298 K	71.52 ± 0.91
308 K	69.94 ± 0.89
318 K	68.54 ± 0.88
328 K	66.78 ± 0.85

CC(C)[C@H](N)C(=O)O [L-valine] + O
[1]
Settings	mass density, w1 = 0.005 [kg/m3]	surface tension liquid-gas, w1 = 0.005 [mN/m]	surface tension liquid-gas, w1 = 0.01 [mN/m]	surface tension liquid-gas, w1 = 0.02 [mN/m]	surface tension liquid-gas, w1 = 0.03 [mN/m]	surface tension liquid-gas, w1 = 0.04 [mN/m]
298 K	998.1 ± 0.6	70.53 ± 0.9	70.5 ± 0.9	69.48 ± 0.89	68.4 ± 0.87	67.12 ± 0.86
308 K	–	69.19 ± 0.88	68.93 ± 0.88	68.17 ± 0.87	67.08 ± 0.86	66.41 ± 0.85
318 K	–	67.61 ± 0.86	67.61 ± 0.86	66.54 ± 0.85	65.36 ± 0.84	64.53 ± 0.83
328 K	–	66.3 ± 0.85	66.02 ± 0.85	65.14 ± 0.84	63.84 ± 0.82	63.26 ± 0.81

O [water] + CCO
[1], w2 = 0
Settings	surface tension liquid-gas [mN/m]
298 K	72.04 ± 0.92
313 K	69.89 ± 0.89

O=C(O)CC(O)C(=O)O (stereo not drawn) [hydroxybutanedioic acid] + O
[1]
Settings	mass density, w1 = 0.01 [kg/m3]	surface tension liquid-gas, w1 = 0.01049 [mN/m]	surface tension liquid-gas, w1 = 0.02026 [mN/m]	surface tension liquid-gas, w1 = 0.03004 [mN/m]	surface tension liquid-gas, w1 = 0.04002 [mN/m]	surface tension liquid-gas, w1 = 0.06001 [mN/m]	surface tension liquid-gas, w1 = 0.07998 [mN/m]	surface tension liquid-gas, w1 = 0.1 [mN/m]
298 K	1000.8 ± 0.6	71.39 ± 0.91	71.2 ± 0.91	71.09 ± 0.91	70.92 ± 0.9	70.61 ± 0.9	70.44 ± 0.9	70.2 ± 0.9
308 K	–	69.64 ± 0.89	69.49 ± 0.89	69.42 ± 0.89	69.28 ± 0.89	69.18 ± 0.88	68.83 ± 0.88	68.62 ± 0.88
318 K	–	68.16 ± 0.87	68.16 ± 0.87	68.11 ± 0.87	67.78 ± 0.87	67.63 ± 0.87	67.49 ± 0.87	67.25 ± 0.86
328 K	–	66.67 ± 0.85	66.54 ± 0.85	66.48 ± 0.85	66.43 ± 0.85	66.24 ± 0.85	66.05 ± 0.85	65.89 ± 0.85

O [water] + C[C@H](O)C(=O)O
[1], w2 = 0
Settings	surface tension liquid-gas [mN/m]
298 K	71.53 ± 0.91
308 K	70.02 ± 0.89
318 K	68.48 ± 0.87
328 K	67.18 ± 0.86

O=C(O)[C@@H]1CCCN1 [L-proline] + O
[1]
Settings	mass density, w1 = 0.02 [kg/m3]	surface tension liquid-gas, w1 = 0.01996 [mN/m]	surface tension liquid-gas, w1 = 0.03996 [mN/m]	surface tension liquid-gas, w1 = 0.05995 [mN/m]	surface tension liquid-gas, w1 = 0.07996 [mN/m]	surface tension liquid-gas, w1 = 0.09995 [mN/m]
298 K	1002.6 ± 0.6	71.56 ± 0.91	71.56 ± 0.91	71.55 ± 0.91	71.5 ± 0.91	71.45 ± 0.91
308 K	–	70.14 ± 0.89	70.13 ± 0.89	70.12 ± 0.89	70.05 ± 0.89	69.95 ± 0.89
318 K	–	68.51 ± 0.88	68.51 ± 0.88	68.46 ± 0.88	68.44 ± 0.88	68.4 ± 0.88
328 K	–	66.8 ± 0.86	66.79 ± 0.86	66.75 ± 0.86	66.67 ± 0.85	66.46 ± 0.85

C[C@H](O)C(=O)O [(S)-2-hydroxypropanoic acid] + O
[1]
Settings	mass density, w1 = 0.01 [kg/m3]	surface tension liquid-gas, w1 = 0.002 [mN/m]	surface tension liquid-gas, w1 = 0.004 [mN/m]	surface tension liquid-gas, w1 = 0.006 [mN/m]	surface tension liquid-gas, w1 = 0.008 [mN/m]
298 K	999.5 ± 0.6	70.66 ± 0.9	69.69 ± 0.89	68.73 ± 0.88	67.69 ± 0.87
308 K	–	69.32 ± 0.88	68.36 ± 0.87	67.63 ± 0.86	67.06 ± 0.86
318 K	–	68.04 ± 0.87	67.36 ± 0.86	66.46 ± 0.85	65.96 ± 0.85
328 K	–	67.07 ± 0.86	66.17 ± 0.85	65.34 ± 0.84	64.92 ± 0.83

NC(=O)CC[C@H](N)C(=O)O [L-glutamine] + O
[1]
Settings	mass density, w1 = 0.005 [kg/m3]	surface tension liquid-gas, w1 = 0.00499 [mN/m]	surface tension liquid-gas, w1 = 0.00998 [mN/m]	surface tension liquid-gas, w1 = 0.01501 [mN/m]	surface tension liquid-gas, w1 = 0.02001 [mN/m]	surface tension liquid-gas, w1 = 0.02499 [mN/m]	surface tension liquid-gas, w1 = 0.02999 [mN/m]
298 K	998.8 ± 0.6	71.43 ± 0.91	71.49 ± 0.91	71.53 ± 0.91	71.55 ± 0.91	71.55 ± 0.91	71.55 ± 0.91
308 K	–	69.29 ± 0.88	69.65 ± 0.89	69.78 ± 0.89	69.89 ± 0.89	69.96 ± 0.89	70.02 ± 0.89
318 K	–	68.34 ± 0.87	68.42 ± 0.87	68.59 ± 0.88	68.58 ± 0.88	68.64 ± 0.88	68.67 ± 0.88
328 K	–	66.55 ± 0.85	66.69 ± 0.85	66.76 ± 0.85	66.85 ± 0.86	66.98 ± 0.86	67.04 ± 0.86

O [water] + O=C(O)[C@@H]1CCCN1
[1], w2 = 0
Settings	surface tension liquid-gas [mN/m]
298 K	71.61 ± 0.91
308 K	70.1 ± 0.89
318 K	68.56 ± 0.88
328 K	66.76 ± 0.85

CSCC[C@H](N)C(=O)O [L-methionine] + O
[1]
Settings	mass density, w1 = 0.005 [kg/m3]	surface tension liquid-gas, w1 = 0.005 [mN/m]	surface tension liquid-gas, w1 = 0.01 [mN/m]	surface tension liquid-gas, w1 = 0.02 [mN/m]	surface tension liquid-gas, w1 = 0.03 [mN/m]	surface tension liquid-gas, w1 = 0.04001 [mN/m]
298 K	998.5 ± 0.6	71.39 ± 0.91	71.3 ± 0.91	71.02 ± 0.9	70.77 ± 0.9	70.61 ± 0.9
308 K	–	69.89 ± 0.89	69.69 ± 0.89	69.45 ± 0.89	69.15 ± 0.88	68.9 ± 0.88
318 K	–	68.4 ± 0.87	68.3 ± 0.87	68.06 ± 0.87	67.74 ± 0.87	67.28 ± 0.86
328 K	–	66.65 ± 0.85	66.56 ± 0.85	66.32 ± 0.85	65.78 ± 0.84	64.97 ± 0.83

O [water] + O=C(O)CC(O)C(=O)O
[1], w2 = 0
Settings	surface tension liquid-gas [mN/m]
298 K	71.52 ± 0.91
308 K	69.73 ± 0.89
318 K	68.3 ± 0.87
328 K	66.81 ± 0.85

O [water] + NC(=O)CC[C@H](N)C(=O)O
[1], w2 = 0
Settings	surface tension liquid-gas [mN/m]
298 K	71.06 ± 0.9
308 K	69.1 ± 0.88
318 K	68.31 ± 0.87
328 K	66.41 ± 0.85
